Tested on: 5-LO
Test: not given
Conditions: background statement; cited from earlier work

Question: Which 5-LO inhibition does the source give for `CC(Cc1ccc(O)c(O)c1)C(C)Cc1ccc(O)c(O)c1` (centres unmarked) [NDGA, nordihydroguayaretic acid] here?
Answer: potent 5-LO inhibitor

Molecular target: T1, 5-lipoxygenase (5-LO) (Homo sapiens, UniProt P09917)
T1 construct: endogenous in cells; host or cells: human polymorphonuclear leukocytes from donor blood
T1 sequence (P09917 1-674): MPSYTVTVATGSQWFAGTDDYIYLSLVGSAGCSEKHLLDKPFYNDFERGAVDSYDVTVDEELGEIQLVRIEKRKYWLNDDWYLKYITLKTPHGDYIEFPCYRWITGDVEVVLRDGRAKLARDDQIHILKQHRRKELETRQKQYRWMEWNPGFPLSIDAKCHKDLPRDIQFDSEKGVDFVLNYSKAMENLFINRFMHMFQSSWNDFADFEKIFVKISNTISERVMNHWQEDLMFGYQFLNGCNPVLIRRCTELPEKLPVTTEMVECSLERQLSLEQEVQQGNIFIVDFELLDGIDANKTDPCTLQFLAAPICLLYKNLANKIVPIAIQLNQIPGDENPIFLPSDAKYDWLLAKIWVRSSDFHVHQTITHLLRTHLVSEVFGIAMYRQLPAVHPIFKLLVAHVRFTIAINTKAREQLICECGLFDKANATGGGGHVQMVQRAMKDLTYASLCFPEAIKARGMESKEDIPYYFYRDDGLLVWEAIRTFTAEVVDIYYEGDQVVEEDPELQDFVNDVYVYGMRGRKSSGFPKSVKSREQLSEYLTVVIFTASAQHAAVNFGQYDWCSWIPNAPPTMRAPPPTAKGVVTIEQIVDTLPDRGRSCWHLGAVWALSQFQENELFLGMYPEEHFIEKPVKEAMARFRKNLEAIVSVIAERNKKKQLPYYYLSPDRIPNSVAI
Test: 5-LO inhibiting activity in human polymorphonuclear leukocytes ([14C]-arachidonic acid, A23187; HPLC of eicosanoids)
Type: cell-based
Conditions: 25 μM concentration; read-out: 5-LO inhibitory activity, approximate inhibition percentage
Procedure: In order to show the 5-LO inhibiting activity of the products of the present invention, a specific test based on human polymorphonuclear leukocytes is chosen.
5-LO Inhibiting Activity in Polymorphonuclear Leukocytes
Blood was obtained from donors which had not received medication during the ten days previous to the extraction. The blood was treated with an anticoagulant (ACD-A) and was centrifuged at 200 g during 12 min at room temperature, separating the supernatant. A solution of Dextran T-500 in physiological serum was added to the pellet, in order to obtain a final concentration of 0.6% w/v, and was allowed to sediment during 40 min. The supernatant was centrifuged at 180 g during 10 min at room temperature. The pellet was resuspended in 5 ml of Hank's buffer, pH 7.4. After the addition of 3 ml of Lymphoprep, the suspension was centrifuged at 450 g during 30 min, and the layers of supernatant were discarded. The next step was the lysis of the erythrocytes present by adding 2 ml of a saline solution. The resulting volume was adjusted to 10 ml with Hank's buffer, pH 7.4. The solution was centrifuged during 10 min at 180 g; the supernatant was discarded and the resulting pellet was resuspended in 1-2 ml of Hank's buffer, pH 7.4. The cellular density was determined using a haemocytometer using the procedure of microcollection Unopette to determine the levels of platelet contamination. Cellular density was adjusted to 2×10^7 cells/ml with Hank's buffer, pH 7.4 and CaCl2 was added to a final concentration of 1.5 mM.
Aliquots (0.5 ml) of the polymorphonuclear leukocytes suspensions, obtained as described in part (a), were incubated during 5 min at 37° C. in the absence (control) and in the presence of three different concentrations of each drug. Afterwards an ethanol solution of [^14 C]-arachidonic acid and A23187 ionophore was added to obtain a final concentration of 10 and 5 μM, respectively. After 5 min of incubation the reaction was stopped by addition of 0.5 ml of ice-cold ethanol. Samples were centrifuged during 2 min at 1500 g, and the supernatants were kept at -80° C. until analyzed. Controls were carried out using the polymorphonuclear leukocyte suspensions aliquots in the presence of the solvent (DMSO) only.
The analysis of the products from the transformation of arachidonic acid through the action of the lipoxygenase (these products being the eicosanoids) was carried out using high pressure liquid chromatography (HPLC), in a reverse phase column (Ultrasphere-ODS, Beckman), injecting 500 μl of the supernatants obtained from the incubations. Elution was carried out using an isocratic mix of mathanol:water:triethylamine:trifluoroacetic acid, 75:25:0.05:0.10, with a flux of 1 ml/min. Detection was carried out with a radioactivity detector with a liquid scintillation cell on-line coupled with the column.

Question: For `CC(C)(C)c1ccc(O)c(I)c1` [Bobel-2, 4-tert-butyl-2-iodophenol], which inhibition at 25 µM is on record?
Answer: 80%

Question: Which inhibition at 25 µM does the source give for `CC(C)(C)c1cc(I)ccc1O` [Bobel-3, 2-tert-butyl-4-iodophenol] here?
Answer: 96%

Question: Which inhibition at 25 µM does the source give for `CC(C)c1cc(I)cc(C(C)C)c1O` [Bobel-4, 2,6-diisopropyl-4-iodophenol] here?
Answer: 94%

Question: For `CCc1cc(I)cc(I)c1O` [Bobel-7, 2-ethyl-4,6-diiodophenol], which inhibition at 25 µM is on record?
Answer: 74%

Question: Which inhibition at 25 µM does the source give for `CC(C)c1cc(I)cc(I)c1O` [Bobel-8, 2-isopropyl-4,6-diiodophenol] here?
Answer: 95%

Question: For `CC(C)(C)c1cc(I)cc(I)c1O` [Bobel-9, 2-tert-butyl-4,6-diiodofenol], which inhibition at 25 µM is on record?
Answer: 87%

Question: For `Oc1c(Cl)cc(I)cc1I` [Bobel-10, 2-chloro-4,6-diiodophenol], which inhibition at 25 µM is on record?
Answer: 73%

Question: With `Oc1c(Br)cc(I)cc1I` [Bobel-11, 2-bromo-4,6-diiodophenol] as the compound, how does the inhibition at 25 µM read?
Answer: 88%

Question: With `Oc1c(I)cc(I)cc1C(F)(F)F` [Bobel-12, 2-trifluoromethyl-4,6-diiodophenol] as the compound, how does the inhibition at 25 µM read?
Answer: 97%

Question: For `CC(C)c1cc(I)c(O)c(I)c1` [Bobel-14, 4-isopropyl-2,6-diiodophenol], which inhibition at 25 µM is on record?
Answer: 85%

Question: For `CC(C)(C)c1cc(I)c(O)c(I)c1` [Bobel-15, 4-tert-butyl-2,6-diiodophenol], which inhibition at 25 µM is on record?
Answer: 85%

Question: For `Oc1c(I)cc(-c2ccccc2)cc1I` [Bobel-16, 4-phenyl-2,6-diiodophenol], which inhibition at 25 µM is on record?
Answer: 97%

Question: With `Oc1c(I)cc(Cl)cc1I` [Bobel-18, 4-chloro-2,6-diiodophenol] as the compound, how does the inhibition at 25 µM read?
Answer: 80%

Question: With `Oc1c(I)cc(C(F)(F)F)cc1I` [Bobel-20, 4-trifluoromethyl-2,6-diiodophenol] as the compound, how does the inhibition at 25 µM read?
Answer: 100%

Question: With `Cc1c(I)cc(I)c(O)c1I` [Bobel-25, 3-methyl-2,4-6-triiodophenol] as the compound, how does the inhibition at 25 µM read?
Answer: 97%

Question: With `CCc1c(I)cc(I)c(O)c1I` [Bobel-26, 3-ethyl-2,4,6-triiodophenol] as the compound, how does the inhibition at 25 µM read?
Answer: 94%

Question: For `Oc1c(I)cc(I)c(F)c1I` [Bobel-29, 3-fluoro-2,4,6-triiodophenol], which inhibition at 25 µM is on record?
Answer: 100%

Question: Which inhibition at 25 µM does the source give for `Oc1c(I)cc(I)c(Cl)c1I` [Bobel-30, 3-chloro-2,4,6-triiodophenol] here?
Answer: 90%

Same assay, conditions: LTB4, 6-trans-LTB4, 5-HETE, 20-OH-LTB4; FIGS. 3 and 4

Question: Which “concentration of biosynthesis products versus concentration of the drug” value does the source give for `CC(C(=O)O)c1ccc2oc(-c3ccc(Cl)cc3)nc2c1` (centres unmarked) [benoxaprofen, reference compound] here?
Answer: decreased in approximately linear with the concentration of the drug used

Question: With `CC(=O)N1CCN(c2ccc(OCC3COC(Cn4ccnc4)(c4ccc(Cl)cc4Cl)O3)cc2)CC1` (centres unmarked) [ketaconozale, ketoconazole, reference compound] as the compound, how does the “concentration of biosynthesis products versus concentration of the drug” value read?
Answer: decreased in approximately linear with the concentration of the drug used

Same assay, conditions: human polymorphonuclear leukocytes; AA 10 μM, A23187 5 μM; average of five different peaks; read-out: IC50 (concentration of the drug which inhibits 50% of the AA converted by 5-LO)

Question: With `CC(C(=O)O)c1ccc2oc(-c3ccc(Cl)cc3)nc2c1` (centres unmarked) [benoxaprofen, reference compound] as the compound, how does the IC50 read?
Answer: 92 µM

Question: Which IC50 does the source give for `CC(=O)N1CCN(c2ccc(OCC3COC(Cn4ccnc4)(c4ccc(Cl)cc4Cl)O3)cc2)CC1` (centres unmarked) [ketaconozale, ketoconazole, reference compound] here?
Answer: 102 µM

Same assay, conditions: in words

Question: With `Oc1ccccc1I` [Bobel 2-iodophenol, 2-iodophenol, reference compound] as the compound, how does the “5-LO inhibiting activity of products of monoiodination of phenol (control tests)” value (“5-LO inhibiting activity” below) read?
Answer: negligible activity

Question: With `Oc1cccc(I)c1` [Bobel 3-iodophenol, 3-iodophenol, reference compound] as the compound, how does the “5-LO inhibiting activity” value read?
Answer: negligible activity

Question: Which “5-LO inhibiting activity” value does the source give for `Oc1ccc(I)cc1` [Bobel 4-iodophenol, 4-iodophenol, reference compound] here?
Answer: negligible activity

Tested on: dioxygenases
Test: not given
Conditions: background statement; cited from earlier work

Question: With `CC(Cc1ccc(O)c(O)c1)C(C)Cc1ccc(O)c(O)c1` (centres unmarked) [NDGA, nordihydroguayaretic acid] as the compound, how does the inhibition of dioxygenases read?
Answer: inhibitor of all dioxygenases

Tested on: not given
Test: not given
Conditions: background statement; cited from earlier work

Question: For `CC(C(=O)O)c1ccc2oc(-c3ccc(Cl)cc3)nc2c1` (centres unmarked) [benoxaprofen, reference compound], which toxicity is on record?
Answer: much too toxic

Question: Which toxicity does the source give for `COc1c(OC)c(OC(C)=O)c2cc(Cl)ccc2c1OC(C)=O` [lonapalene] here?
Answer: much too toxic
